# Assay results from patent US8741930B2 (Bridge Pharma, Inc., priority 2008, dated 2014).
# Read-outs that look alike come from different tables or passages of the source.
# Tests used:
# [1] = tested on: histamine wheal response; experiment: Antihistaminic activity in vivo: histamine-induced wheal after oral dosing; parameters: species or system rats
# Procedure: Male rats (150-200 g) were starved overnight and twelve hours after dorsal depilation, the animals were orally pretreated with the test compound(s). Four dorsal test areas were marked with permanent ink, carefully avoiding the area closest to the spine. Exactly 60 min after the dosing of the test compound, two intradermal injections of histamine (50 microliter; 1.0 mg/ml of histamine di-HCl) were performed, one on each side on the back of the animal. Two intradermal injections of the vehicle for the histamine solution were also performed. Evans blue dye (20 mg/kg) was injected iv 1 minute prior to the intra-dermal injections of histamine and the histamine vehicle. Twenty minutes were allowed for the wheal response to fully develop, whereupon the animals were euthanized and the dorsal skin containing the intradermal wheals were deflected. The blue spotted areas were measured in square millimeters and the duplicate vehicle wheal responses were averaged. In vehicle-treated animals, the wheal area, on average, was increased by histamine by 98 mm^2. The inhibition was calculated in percent difference from this baseline value.
# [2] = tested on: tear flow; experiment: Tear flow, phenol red thread (modified Schirmer's test) after ocular instillation; format: in vivo, mice; conditions: for Effect on tear flow: topical administration to the eyes of laboratory animals; for Tear flow, length of red area of thread, Mean ± SEM: 0.07% solution, 0.05 mL twice daily, 45 min after 5th instillation, N=8
# Procedure: All instillations were performed twice daily and consisted of 0.05 mL. A total of five instillations were administered. Tear measurements were performed 45 minutes after the first drug instillation on Day 3, by carefully placing the bent end of a Zone-Quick phenol red impregnated cotton thread (FCI Ophthalmics, Pembrooke, Mass.) at the intercanthus of the eye and holding it in place for 30 seconds. After removal, the length of the red area of the thread was measured in millimeters. During tear measurements, all animals were lightly anesthetized with isoflurane in order to reduce movement and stress.
# [3] = Maximal solubility; format: physicochemical
# Excerpt: Ocular formulations of norketotifen to be used by individuals suffering from a dry eye syndrome may be hypotonic or isotonic. Thus, the acceptable osmolality may range from about 150 mOsm to about 350 mOsm.
# [4] = tested on: tear flow; conditions: U.S. Pat. No. 7,247,623; cited from earlier work
# [5] = target: muscarinic receptors (antimuscarinic activity); conditions: Wolff et al. 2007; cited from earlier work
smiles,measurement,setting,value
O=C1Cc2ccccc2C(=C2CCNCC2)c2ccsc21 (racemic) [Norketotifen],inhibition at 1 mg/kg,"[1]; Rattus norvegicus, 1 mg/kg oral, versus vehicle histamine effect",6%
same,inhibition at 10 mg/kg,"[1]; Rattus norvegicus, 10 mg/kg oral, versus vehicle histamine effect",83%
same,Absorption after oral administration,"[1]; rats, oral",well absorbed
same,Statistical significance of effect in modified Schirmer's test,[2]; 45 minutes after the 5th treatment,statistically significant effects
same,Effect on tear flow,[2],increase tear flow
"CN1CCC(=C2c3ccccc3CC(=O)c3sccc32)CC1.O=C(O)/C=C/C(=O)O [KETOTIFEN HF, reference compound]","Tear flow, length of red area of thread, Mean ± SEM",[2],4.25 ± 0.250 mm
"CN1CCC(=C2c3ccccc3CC(=O)c3sccc32)CC1 [Ketotifen, reference compound]",Effect on tear flow,[2],not to increase tear flow
O=C(O)/C=C/C(=O)O.O=C1Cc2ccccc2C(=C2CCNCC2)c2ccsc21 [norketotifen hydrogen fumarate],Maximal solubility,[3]; in saline,4500 µg/mL
same,Maximal solubility,[3]; in water,2700 µg/mL
same,"Tear flow, length of red area of thread, Mean ± SEM",[2],4.62 ± 0.263 mm
CN(C)CC/C=C1/c2ccccc2COc2ccc(CC(=O)O)cc21 [olopatadine],Effect on tear flow,[4],reduce tear flow
same,IC50,[5],1.74 µM
